Experimental data as given in PMC7034088, “Effect of verapamil on the pharmacokinetics of hydroxycamptothecin and its potential mechanism” (Pharmaceutical Biology, 2020).
Like-named read-outs stand apart in the source and are kept apart here.

What was measured:
[1] = In vivo pharmacokinetic study of oral HCPT in rats with or without verapamil pre-treatment; settings: male, Sprague-Dawley, rat, plasma, 50 mg/kg, HCPT 50 mg/kg intragastric/oral, n = 6, Mean ± S.D.; for CL/F: read-out: CLz/F (oral clearance) (converted)
Procedure: Male Sprague–Dawley rats weighing 230–250 g were provided by Shanghai SLAC Laboratory Animal Co., Ltd (Shanghai, China). Rats were bred in a breeding room at 25 °C with 60 ± 5% humidity and a 12 h dark-light cycle. Tap water and normal chow were given ad libitum. All of the experimental animals were housed under the above conditions, for a 3-day acclimation period and fasted overnight before the experiments. All experimental procedures and protocols were reviewed and approved by the Animal Care and Use Committee of China–Japan Union Hospital of Jilin University and were in accordance with the National Institutes of Health guidelines regarding the principles of animal care.
Rats were divided into two groups of six animals each, with or without pre-treatment of verapamil. The pre-treatment of verapamil on the test group was at a dose of 10 mg/kg/day (dissolved directly in normal saline containing 0.5% methylcellulose at a concentration of 2 mg/mL) for 7 days. Next, 50 mg/kg HCPT was administrated orally. Blood samples (200 μL) were collected into heparinized tubes via the oculi choroidal vein at 0.083, 0.33, 0.5, 1, 2, 4, 6, 8, 10, 12, 24, and 36 h after the oral administration of […]. The blood samples were centrifuged at 3500 rpm for 5 min. The plasma samples that were obtained were stored at −40 °C until analysis.
To obtain 100 μL aliquot of plasma sample, 20 μL methanol and 180 μL internal standard methanol solution (2 ng/mL) were added and vortexed for 60 s to mix in a 1.5 mL polypropylene tube, and were centrifuged at 12,000 rpm for 10 min. The supernatant was removed into an injection vial, and a 3 μL aliquot was injected into the LC-MS/MS system for analysis.
The determination of HCPT was performed on an Agilent 1290 series liquid chromatography system and an Agilent 6470 triple-quadruple mass spectrometer (Palo Alto, CA). The HPLC/MS conditions and sample preparation were basically according to a validated HPLC method described before (Zhang et al. [2019]). The chromatographic analysis of HCPT was performed on a Waters X-Bridge C18 column (3.0 × 100 mm, i.d.; 3.5 μm, Waters Corporation, Milford, MA ) at room temperature (25 °C). The mobile phase was water (containing 0.1% formic acid) and acetonitrile (30:70, v: v) with isocratic elution at a flow rate of 0.2 mL/min, and the analysis time was 4 min.
The mass scan mode was positive MRM mode. The precursor ion and product ion are m/z 365.20→321.10 for HCPT and m/z 349.25→305.15 for IS. The collision energy for HCPT and IS were 30 and 20 eV, respectively. The MS/MS conditions were optimized as follows: fragmentor, 110 V; capillary voltage, 3.5 kV; Nozzle voltage, 500 V; nebulizer gas pressure (N2), 40 psig; drying gas flow (N2), 10 L/min; gas temperature, 350 °C; sheath gas temperature, 400 °C; sheath gas flow, 11 L/min.
Pharmacokinetic parameters, including the area under the plasma concentration–time curve (AUC), maximal plasma concentration (Cmax), the time for the maximal plasma concentration (Tmax), and the mean residence time (MRT), were calculated using the DAS 3.0 pharmacokinetic software (Chinese Pharmacological Association, Anhui, China).

[2] = Metabolic stability of HCPT in rat liver microsomes with or without verapamil; assay type: in vitro ADME; settings: for microsomal CLint at 1 µM: read-out: intrinsic clearance rate
Procedure: The metabolic stability of HCPT was investigated in rat liver microsomes with or without verapamil. The detailed methods were similar to those reported before (Wang et al. [2017]; Yan et al. [2017]). Briefly, 30 μL rat liver microsome (20 mg/mL), 12 μL HCPT solution (100 μM) and 1113 μL PBS buffer (0.1 M, pH 7.4) were added to the centrifuge tubes on ice. After a 5-min preincubation at 37 °C, the NADPH-generating system (45 μL) was added into the microsomal suspension to initiate the reaction. Meanwhile, the effects of verapamil or ketoconazole (a positive CYP3A4 inhibitor) on the metabolic stability of HCPT were investigated by adding 10 μM of verapamil or ketoconazole (12 μL, final concentration of 0.1 μM) to rat liver microsomes and preincubating them for 30 min at 37 °C, followed by the addition of NADPH-generating system. Aliquots of 100 μL were collected from the reaction volumes at 0.083, 0.167, 0.33, 0.5, 1, 2, 4, 8, 12, 24, and 36 h after the addition of HCPT, and 200 μL ice-cold acetonitrile containing esculin was added to terminate the reaction. All the experiments were performed in triplicate. The subsequent sample preparation method was the same as the plasma sample preparation method, and the concentration of HCPT was determined by LC-MS.
The in vitro half-life (t1/2) was obtained using the equation: t1/2 = 0.693/k; V (μL/mg) = volume of incubation (μL)/protein in the incubation (mg); intrinsic clearance (Clint) (μL/min/mg protein) = V × 0.693/t1/2.

[3] = Bidirectional transport of HCPT in the Caco-2 cell transwell model with or without verapamil; settings: human; for efflux ratio at 2 µM: Caco-2, pH 7.4, efflux ratio, Caco-2 transwell, HCPT 2 μM
Procedure: (§1) The Caco-2 cell line was obtained from the American Type Culture Collection (Manassas, VA), and it was performed according to the previous study (Liu et al. [2019]). The Caco-2 cells were cultured in DMEM high glucose medium containing 15% FBS, 1% NEAA, and 100 U/mL penicillin and streptomycin. The cells were cultured at 37 °C with 5% CO2. For transport studies, the cells at passage 40 were seeded on transwell polycarbonate insert filters (1.12 cm^2 surface, 0.4 μm pore size, 12 mm diameter; Corning Co-star Corporation, Corning, MA) in 12-well plates at a density of 1 × 10^5 cells/cm^2. Cells were allowed to grow for 21 days. For the first seven days, the medium was replaced every two days, and then daily. The transepithelial electrical resistance (TEER) of the monolayer cells was measured using Millicell ERS-2 (Millipore Corporation, Billerica, MA), and TEER exceeding 400 Ω·cm^2 was used for the flux experiment. […] The alkaline phosphatase activity was validated using an Alkaline Phosphatase Assay Kit. The qualified monolayers were used for transport studies.
(§2) The Caco-2 cell transwell model was employed to investigate the transport of HCPT in the presence or absence of verapamil. The cell monolayers were rinsed twice with warm (37 °C) Hanks’ balanced salt solution (HBSS) before the transport experiments. After that, the cells were incubated at 37 °C for 20 min. HCPT was added to either apical or basolateral side to incubate with the cell monolayers in fresh incubation medium for the indicated times at 37 °C, after preincubation. The volume of incubation medium on the apical and basolateral sides was 0.5 mL and 1.5 mL, respectively, and a 100 μL aliquot of the incubation solution was withdrawn at the indicated time points from the receiver compartment and replaced with the same volume of fresh pre-warmed HBSS buffer. The permeability of HCPT (2 μM) in all of the above conditions for both directions, i.e., from the apical (AP) side to the basolateral (BL) side and from the BL side to the AP side, was measured after incubation for 30, 60, 90, and 120 min at 37 °C. In addition, the efflux activity of P-gp was validated using a typical P-gp substrate digoxin (25 μM).
(§3) The apparent permeability coefficient (Papp) was calculated using the equation of Artursson and Karlsson: Papp=(ΔQ/Δt)×[1/(A×C0)] where Papp is the apparent permeability coefficient (cm/s), ΔQ/Δt (μmol/s) is the rate at which the compound appears in the receiver chamber, C0 (μmol/L) is the initial concentration of the compound in the donor chamber, and A (cm^2) represents the surface area of the cell monolayer. Data were collected from three separate experiments, and each was performed in triplicate.

[4] = tested on: Caco-2 cell monolayers; assay: as above; settings: Caco-2 transwell, digoxin 25 μM, with addition of verapamil
Procedure: as §1, §2, §3

[5] = tested on: P-gp; assay: as above; settings: human, Caco-2, efflux ratio, Caco-2 transwell, digoxin 25 μM (P-gp substrate validation), without verapamil
Procedure: as §1, §2, §3

[6] = pre-treatment of verapamil 10 mg/kg/day for 7 days
[7] = pH 7.4, with verapamil, final concentration 0.1 µM, in the presence of verapamil (preincubation 30 min at 37 °C)

Q: With CC[C@@]1(O)C(=O)OCc2c1cc1n(c2=O)Cc2cc3cc(O)ccc3nc2-1 [HCPT, Hydroxycamptothecin] as the molecule, how does the AUC(0-t) ([1]; control (no verapamil)) read?
A: Its AUC(0-t) is 660 ± 100 ng·h/mL.

Q: And the Cmax ([1]; control (no verapamil))?
A: Its Cmax is 92 ± 11.3 ng/mL.

Q: What about the MRT ([1]; control (no verapamil)) of the same molecule?
A: The MRT was 9.61 ± 0.55 h.

Q: What about the Tmax ([1]; control (no verapamil)) of the same molecule?
A: The Tmax was 1.12 ± 0.14 h.

Q: What about the half-life ([1]; control (no verapamil)) of the same molecule?
A: The half-life was 17.7 ± 3.6 h.

Q: And the CL/F ([1]; control (no verapamil))?
A: The CL/F was 1060 mL/min/kg.

Q: What about the AUC(0-t) [1, 6] of the same molecule?
A: The AUC(0-t) was 1140 ± 290 ng·h/mL.

Q: What about the Cmax [1, 6] of the same molecule?
A: Its Cmax is 125 ± 13.5 ng/mL.

Q: What about the MRT [1, 6] of the same molecule?
A: The MRT was 11.4 ± 0.78 h.

Q: What about the Tmax [1, 6] of the same molecule?
A: The Tmax was 0.89 ± 0.09 h.

Q: And the half-life [1, 6]?
A: The half-life was 23 ± 6.71 h.

Q: What about the CL/F [1, 6] of the same molecule?
A: Its CL/F is 549 mL/min/kg.

Q: And the half-life at 1 µM [2, 7]?
A: Its half-life at 1 µM is 0.807 ± 0.0085 h.

Q: What about the microsomal CLint at 1 µM [2, 7] of the same molecule?
A: Its microsomal CLint at 1 µM is 28.6 ± 0.3 µL/min/mg.

Q: And the half-life at 1 µM ([2]; pH 7.4, without verapamil)?
A: Its half-life at 1 µM is 0.585 ± 0.00533 h.

Q: What about the microsomal CLint at 1 µM ([2]; pH 7.4, without verapamil) of the same molecule?
A: Its microsomal CLint at 1 µM is 39.5 ± 0.42 µL/min/mg.

Q: And the Papp B→A at 2 μM ([3]; Caco-2, pH 7.4)?
A: Its Papp B→A at 2 μM is 0.205 ×10⁻⁶ cm/s.

Q: What about the efflux ratio at 2 µM ([3]; in the presence of verapamil) of the same molecule?
A: Its efflux ratio at 2 µM is 1.21.

Q: And the efflux ratio at 2 µM ([3]; without verapamil)?
A: Its efflux ratio at 2 µM is 1.82.

Q: Which “efflux ratio, effect of addition of verapamil” value [4] does the source give for C[C@H]1O[C@@H](O[C@H]2[C@@H](O)C[C@H](O[C@H]3[C@@H](O)C[C@H](O[C@H]4CC[C@@]5(C)[C@H](CC[C@@H]6[C@@H]5C[C@@H](O)[C@]5(C)[C@@H](C7=CC(=O)OC7)CC[C@]65O)C4)O[C@@H]3C)O[C@@H]2C)C[C@H](O)[C@@H]1O [digoxin] here?
A: Its value is “abrogated it”.

Q: What about the efflux ratio at 25 µM [5] of the same molecule?
A: Its efflux ratio at 25 µM is 11.
